assay: method code SF-AS, from DOI: 10.1002/chin.198834177; details: pH 5.6

Going from `CCOC(=O)C(C)(C)n1nc2ccccc2n1` to `CC(C)(C(N)=O)n1nc2ccccc2n1`, the logD falls from 2.98 to 1.16.

Going from `CCOC(=O)C(C)n1nnc2ccccc21` (stereo not given) to `CCOC(=O)C(CC)n1nnc2ccccc21` (stereo not given), the logD rises from 1.87 to 2.34.

Going from `CCCC(C(=O)OCC)n1nc2ccccc2n1` (stereo not given) to `CCCCC(C(=O)OCC)n1nc2ccccc2n1` (stereo not given), the logD rises from 3.38 to 3.88.

Going from `CCCCC(C(N)=O)n1nc2ccccc2n1` (stereo not given) to `CCCC(C(N)=O)n1nc2ccccc2n1` (stereo not given), the logD falls from 2.28 to 1.75.

Compared with `CCOCC(=O)CCC(C)n1nnc2ccccc21` (stereo not given), `CC(CCC(N)=O)n1nnc2ccccc21` (stereo not given) is lower in logD: 2.64 for the first, 1.15 for the second.

Compared with `CC(CCC(N)=O)n1nc2ccccc2n1` (stereo not given), `CC(CC(N)=O)n1nc2ccccc2n1` (stereo not given) is lower in logD: 1.35 for the first, 1 for the second.

Compared with `CCOC(=O)CCC(C)n1nc2ccccc2n1` (stereo not given), `CCOC(=O)CC(C)n1nc2ccccc2n1` (stereo not given) is lower in logD: 3.05 for the first, 2.7 for the second.

Going from `CCCCC(C(N)=O)n1nnc2ccccc21` (stereo not given) to `CCCC(C(N)=O)n1nnc2ccccc21` (stereo not given), the logD falls from 1.88 to 1.38.

First: CCCC(C(=O)OCC)n1nnc2ccccc21 (stereo not given)
Second: CCCCC(C(=O)OCC)n1nnc2ccccc21 (stereo not given)
The logD of the first is lower: 2.82 for the first, 3.32 for the second.

First: CC(C)(C(N)=O)n1nnc2ccccc21
Second: CCOC(=O)C(C)(C)n1nnc2ccccc21
The logD of the first is lower: 0.76 for the first, 2.6 for the second.

Going from `CCOC(=O)C(CC)n1nc2ccccc2n1` (stereo not given) to `CCOC(=O)C(C)n1nc2ccccc2n1` (stereo not given), the logD falls from 2.88 to 2.38.

Compared with `c1ccc2nn(C3CCCCC3)nc2c1`, `c1ccc2c(c1)nnn2C1CCCCC1` is lower in logD: 3.63 for the first, 3.11 for the second.

Going from `CC(C(N)=O)n1nc2ccccc2n1` (stereo not given) to `CCC(C(N)=O)n1nc2ccccc2n1` (stereo not given), the logD rises from 0.86 to 1.25.

Going from `CC(CC(N)=O)n1nnc2ccccc21` (stereo not given) to `CCOC(=O)CC(C)n1nnc2ccccc21` (stereo not given), the logD rises from 0.75 to 2.27.

Compared with `CC(C(N)=O)n1nnc2ccccc21` (stereo not given), `CCC(C(N)=O)n1nnc2ccccc21` (stereo not given) is higher in logD: 0.35 for the first, 0.88 for the second.

Reference: the SangsterLogP compilation
